Earlier results as cited in paper PMC3341490 (Nuclear Medicine and Biology, 2012).

Experiments:
[1] = copper complex; ref [24]
[2] = tested on: GRPR-expressing, PC-3 xenografted tumors in SCID mice

Molecule | stability constant (log K) [1] | PC-3 tumor uptake ([2]; 1 hour, ref [18]-[19]) | retention of radioactivity in the tumor, relative to 1 h ([2]; 24 h vs 1 h, ref [19])
O=C(O)CN1CCN(CC(=O)O)CCN(CC(=O)O)CCN(CC(=O)O)CC1 [DOTA, 1,4,7,10-tetraazacyclododecane-1,4,7,10-tetraacetic acid] | 22.3 |  | 
O=C(O)CN1CCN(CC(=O)O)CCN(CC(=O)O)CC1 [NOTA, 1,4,7-triazacyclononane-1,4,7-triacetic acid] | 21.6 |  | 
O=C(O)CN1CCCN(CC(=O)O)CCN(CC(=O)O)CCCN(CC(=O)O)CC1 [TETA] | 21.7 |  | 
^64Cu-NO2A-Aoc-BN(7-14) |  | 3.59 % ID/g | 28%
